From patent US20240374573A1, “IMIDAZOLE CONTAINING COMPOUNDS, DERIVATIVES THEREFORE, AND USES THEREOF” (AglaeaPharma Inc., priority 2023, published 2024)

Assays:
α2AAR = molecular target: T1, α2AAR (Homo sapiens, UniProt P08913); test: α2AAR binding assay ([3H]-RX 821002 radioligand); details: [3H]-RX 821002 0.5 nM, HEK293 membranes; read-out: α2A affinity (Ki)
T1 construct: host or cells: HEK293 (membranes)
T1 sequence (P08913 1-465): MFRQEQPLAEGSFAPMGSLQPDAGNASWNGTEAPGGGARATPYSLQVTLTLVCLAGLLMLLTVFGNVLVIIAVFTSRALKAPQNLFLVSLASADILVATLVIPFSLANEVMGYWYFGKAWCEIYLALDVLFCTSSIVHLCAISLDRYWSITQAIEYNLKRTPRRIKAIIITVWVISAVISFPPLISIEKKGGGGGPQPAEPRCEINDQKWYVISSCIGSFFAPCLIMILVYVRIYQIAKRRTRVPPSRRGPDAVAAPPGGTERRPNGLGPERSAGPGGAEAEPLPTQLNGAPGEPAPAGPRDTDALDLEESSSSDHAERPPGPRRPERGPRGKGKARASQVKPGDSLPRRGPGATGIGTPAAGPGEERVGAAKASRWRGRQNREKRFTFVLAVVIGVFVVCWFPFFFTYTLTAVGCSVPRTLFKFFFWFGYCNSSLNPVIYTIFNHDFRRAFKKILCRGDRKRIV
Method: The α2AR Binding Assay was conducted using a stable HEK293 cell line, specifically constructed by WuXi AppTec for targeting α2AAR. […] Both the assay and wash buffers consist of 50 mM Tris-HCl at a pH of 7.4 (Tris base, Sigma, T1503-1 KG).
The procedure initiated with the preparation of test compounds and a reference compound, yohimbine (Sigma, Y3125), through an 8-point 4-fold serial dilution, transferring 1 μL of each to the assay plate. […] After scaling, the plates were agitated at room temperature for one hour. Subsequently, the Unifilter-96 GF/C filter plates were pre-soaked with 0.3% PEI (Sigma, P3143) for at least half an hour. The reaction mixtures were then filtered and washed four times with cold wash buffer using a Perkin Elmer Cell harvester. Post-filtration, the plates were dried at 50° C. for one hour. […] The top of the plates was then sealed with TopSeal-A sealing film. The trapped 3H was quantified using a Perkin Elmer MicroBeta2 Reader. […] Finally, the data were analyzed with Prism 5.0 software, employing the “log (inhibitor) vs. response-Variable slope” model for data fitting. This comprehensive process ensured precise assessment of the binding affinity of compounds to the α2AAR.

[1] = molecular target: T2, α2AAR (α2A-adrenergic receptor) (Homo sapiens, UniProt P08913); test: α2AAR FLIPR assay (agonist activity); format: cell-based; details: FLIPR, α2AAR cell line hosted in HEK293 cells; read-out: α2A agonist activity (EC50)
T2 construct: expressed in transfected cells; host or cells: HEK293
T2 sequence (P08913 1-465): T1 sequence (P08913 1-465)
Method: This experimental protocol involved cell seeding and a FLIPR assay using the α2AAR (α2A-adrenergic receptor) cell line hosted in HEK293 cells. […] On Day 1, the cell seeding process started with the removal of the culture medium, followed by rinsing the cells with DPBS (21-031-CVC, Corning). […] The cells were detached, resuspended in growth media, and centrifuged at room temperature at 1000 rpm for 5 minutes. After discarding the supernatant, the cell pellet was resuspended in growth media to a concentration of 10× 10^5 cells per mL. This suspension was added to 384-well plates (19-Jul-38, Greiner) at 20 μL per well and incubated overnight at 37° C. in 5% CO2.
A 250 mM Probenecid solution was prepared in this buffer. The Fluo-4 Direct™ Loading Buffer was made by dissolving Fluo-4 Direct™ crystals (F10471, Invitrogen) in the FLIPR Assay Buffer and adding Probenecid. The buffer was then vortexed and allowed to stand for over 5 minutes, shielded from light. For the FLIPR procedure, testing compounds for agonist activite were serially diluted and transferred to a 384-well compound plate (25-Jan-39, Greiner). The cell plate was then treated with 2× Fluo-4 Direct™ loading buffer and incubated for 50 minutes at 37° C. in a 5% CO2 atmosphere, followed by 10 minutes at room temperature. Subsequently, the FLIPR assay buffer was added to the compound plate, which is then centrifuged.
The cell plate was analyzed in the FLIPR Tetra+ System for fluorescence signals. For the agonist test, reference compounds were added to the cell plates, and fluorescence was measured. The “Max-Min” calculation began from Read 1 to the maximum allowed. The data were analyzed using Prism software to calculate activation percentage for agonists and inhibition percentage for antagonists. The results were then fitted using specific models to determine EC50 for agonists.
The experimental protocol utilized various reagents and apparatus, including Penicillin/Streptomycin (100×) (SV30010, Hyclone), Poly-L-lysine hydrobromide (P1399, Sigma), and different types of 384-well plates such as the 384-Well PP 2.0 Microplate (PP-0200, LABCYTE) and 384 well Low Dead Volume Microplate (LP-0200, LABCYTE). The use of specific reference compounds like UK14304 was also integral to the assay.

Compound	Ki (α2AAR)	EC50 [1]
CNS(=O)(=O)c1cccc(C(c2c[nH]cn2)c2cccc(C)c2C)c1 (stereo not drawn) [compound 28]	10 to 50 nM	10 to 50 nM
Cc1cccc(C(Cc2ccc(C(=O)NS(=O)(=O)c3ccccc3)cc2)c2c[nH]cn2)c1C (stereo not drawn) [compound 204]	50 to 250 nM	50 to 250 nM
CNC(=O)c1ccc(CC(c2c[nH]cn2)c2cccc(C)c2C)cc1F (stereo not drawn) [compound 192]	< 10 nM	10 to 50 nM
Cc1cccc(C(c2cccc(NC(=O)CC[n+]3ccccc3)c2)c2c[nH]cn2)c1C (stereo not drawn) [compound 143]	10 to 50 nM	50 to 250 nM
Cc1cccc(C(Cc2cccc(NS(=O)(=O)CC3CCOCC3)c2)c2c[nH]cn2)c1C (single isomer, unassigned) [112-B]	< 10 nM	10 to 50 nM
CNC(=O)Nc1cccc(C(c2c[nH]cn2)c2cccc(C)c2C)n1 (stereo not drawn) [compound 146]	10 to 50 nM	10 to 50 nM
CSCCC(=O)Nc1cccc(C(c2c[nH]cn2)c2cccc(C)c2C)c1 (stereo not drawn) [compound 63]	10 to 50 nM	10 to 50 nM
Cc1cccc(C(c2cccc(C(=O)CCC#N)c2)c2c[nH]cn2)c1C (stereo not drawn) [compound 85]	10 to 50 nM	50 to 250 nM
Cc1cccc(C(Cc2ccc3c(c2)CCC(=O)N3)c2c[nH]cn2)c1C (stereo not drawn) [compound 230]	< 10 nM	10 to 50 nM
Cc1cccc(C(Cc2ccc(NC(=O)CC3CCCO3)cc2)c2c[nH]cn2)c1C (stereo not drawn) [compound 176]	< 10 nM	< 10 nM
Cc1cccc(C(c2cccc(NC(=O)CC3CCCO3)c2)c2c[nH]cn2)c1C (stereo not drawn) [compound 153]	10 to 50 nM	10 to 50 nM
Cc1cccc(C(Cc2ccc(C(C)c3nnn[nH]3)cc2)c2c[nH]cn2)c1C (stereo not drawn) [compound 227]	10 to 50 nM	10 to 50 nM
Cc1cccc(C(c2cccc(NC(=O)C3CCOCC3)c2)c2c[nH]cn2)c1C (stereo not drawn) [compound 149]	10 to 50 nM	10 to 50 nM
Cc1cccc(C(Cc2ccc(CC(=O)O)cc2)c2c[nH]cn2)c1C (stereo not drawn) [compound 206]	50 to 250 nM	50 to 250 nM
COc1ccccc1C(Cc1cccc(NS(C)(=O)=O)c1)N=C1NCCN1 (stereo not drawn) [compound 505, N-{3-[2-(imidazolidin-2-ylideneamino)-2-(2-methoxyphenyl)ethyl]phenyl}methanesulfonamide]	< 10 nM	50 to 250 nM
CC(=O)Nc1cccc(C(c2c[nH]cn2)c2cccc(C)c2C)c1 (stereo not drawn) [compound 30]	50 to 250 nM	50 to 250 nM
Cc1cccc(C(c2cccc(NS(=O)(=O)CC3CCOCC3)c2)c2c[nH]cn2)c1C (stereo not drawn) [compound 119]	< 10 nM	10 to 50 nM
Cc1cccc(C(Cc2cccc(NS(C)(=O)=O)c2)c2c[nH]cn2)c1C (stereo not drawn) [compound 76]	< 10 nM	50 to 250 nM
Cc1cccc(C(c2cccc(C(=O)NOC3CCOCC3)c2)c2c[nH]cn2)c1C (stereo not drawn) [compound 145]	< 10 nM	10 to 50 nM
COCCC(=O)Nc1cccc(C(c2c[nH]cn2)c2cccc(C)c2C)c1 (stereo not drawn) [compound 147]	10 to 50 nM	10 to 50 nM
Cc1cccc(C(Cc2ccc(NC(=O)CC3CCOC3)cc2)c2c[nH]cn2)c1C (stereo not drawn) [compound 171]	< 10 nM	< 10 nM
Cc1cccc(C(Cc2ccc(C(C)C(=O)O)cc2)c2c[nH]cn2)c1C (single isomer, unassigned) [174-B]	10 to 50 nM	10 to 50 nM
CC(=O)Nc1ccc(CC(c2c[nH]cn2)c2cccc(C)c2C)c(F)c1 (stereo not drawn) [compound 247]	< 10 nM	10 to 50 nM
Cc1cccc(C(c2cccc(NC(=O)CC3=CCOCC3)c2)c2c[nH]cn2)c1C (stereo not drawn) [compound 120]	< 10 nM	< 10 nM

Compound	Ki (α2AAR)	EC50 [1]
Cc1cccc(C(Cc2ccc(C(=O)O)cc2)c2c[nH]cn2)c1C (single isomer, unassigned) [175-B]	50 to 250 nM	10 to 50 nM
Cc1cccc(C(Cc2ccc(N(C)C(=O)N(C)C)cc2)c2c[nH]cn2)c1C (stereo not drawn) [compound 228]	< 10 nM	< 10 nM
CONC(=O)c1cccc(CC(c2c[nH]cn2)c2cccc(C)c2C)c1 (stereo not drawn) [compound 61]	10 to 50 nM	10 to 50 nM
Cc1cccc(C(c2cccc(-c3cnnn3C)c2)c2c[nH]cn2)c1C (stereo not drawn) [compound 164]	10 to 50 nM	10 to 50 nM
Cc1cn(-c2ccc(CC(c3c[nH]cn3)c3cccc(C)c3C)cc2)nn1 (stereo not drawn) [compound 211]	< 10 nM	10 to 50 nM
Cc1cccc(C(Cc2ccc(S(=O)(=O)O)cc2)c2c[nH]cn2)c1C (stereo not drawn) [compound 221]	10 to 50 nM	10 to 50 nM
Cc1cccc(C(c2cccc(NCCC#N)c2)c2c[nH]cn2)c1C (stereo not drawn) [compound 32]	50 to 250 nM	50 to 250 nM
Cc1cccc(C(Cc2ccc(NS(C)(=O)=O)cc2)c2c[nH]cn2)c1C (racemic) [compound 136]	< 10 nM	< 10 nM
COc1ccccc1C(Cc1cccc(NS(C)(=O)=O)c1)NC1=NCCO1 (stereo not drawn) [compound 509]	< 10 nM	50 to 250 nM
Cc1cccc(C(Cc2cccc(NS(=O)(=O)C3CCOCC3)c2)c2c[nH]cn2)c1C (stereo not drawn) [compound 134]	< 10 nM	10 to 50 nM
CNc1ccc(CC(c2c[nH]cn2)c2cccc(C)c2C)cc1 (stereo not drawn) [compound 203]	< 10 nM	50 to 250 nM
Cc1cccc(C(Cc2ccc(NC(=O)N(C)C3CCOC3)cc2)c2c[nH]cn2)c1C (stereo not drawn) [compound 245]	< 10 nM	< 10 nM
Cc1cccc(C(Cc2ccc3c(c2)OCC(=O)N3)c2c[nH]cn2)c1C (stereo not drawn) [compound 225]	< 10 nM	< 10 nM
Cc1cccc(C(Cc2ccc(NC(=O)C3CCOCC3)cc2)c2c[nH]cn2)c1C (stereo not drawn) [compound 157]	< 10 nM	< 10 nM
Cc1cccc(C(c2cccc(NS(=O)(=O)C[C@H]3CCCO3)c2)c2c[nH]cn2)c1C (stereo partly drawn) [compound 166]	10 to 50 nM	10 to 50 nM
Cc1cccc(C(Cc2ccc(C(=O)NC3CCOCC3)cc2)c2c[nH]cn2)c1C (stereo not drawn) [compound 177]	10 to 50 nM	< 10 nM
CNC(=O)NCCOCCOCC(c1c[nH]cn1)c1cccc(C)c1C (single isomer, unassigned) [17-B]	10 to 50 nM	10 to 50 nM
Cc1cccc(C(c2cccc(S(N)(=O)=O)c2)c2c[nH]cn2)c1C (stereo not drawn) [compound 133]	10 to 50 nM	10 to 50 nM
Cc1cccc(C(Cc2ccc(NC(=O)CC3CCCCO3)cc2)c2c[nH]cn2)c1C (stereo not drawn) [compound 169]	< 10 nM	< 10 nM
Cc1cccc(C(c2cccc(C(=O)NCC3CCOCC3)c2)c2c[nH]cn2)c1C (single isomer, unassigned) [98-B]	< 10 nM	< 10 nM
Cc1cccc(C(Cc2ccc(S(C)(=O)=O)cc2)c2c[nH]cn2)c1C (stereo not drawn) [compound 232]	< 10 nM	< 10 nM
Cc1cccc(C(Cc2ccc(C(=O)NCCC(=O)O)cc2)c2c[nH]cn2)c1C (stereo not drawn) [compound 236]	50 to 250 nM	10 to 50 nM
Cc1cccc(C(c2cccc(C(=O)NCCO)c2)c2c[nH]cn2)c1C (stereo not drawn) [compound 2]		10 to 50 nM
